# From the supplement of paper PMC10307832
# Experiments:
# Test in all cases: relative viability (nuclei count vs DMSO), 5 days (fraction); higher = more cells survive
# BI-D1870 = compound: CC(C)CCN1c2nc(Nc3cc(F)c(O)c(F)c3)ncc2N(C)C(=O)C1C [BI-D1870]
# In short: (§1)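 Lung cancer cell lines received five library-drug doses (not always all listed) spaced by √10, pinned on vehicle-anchored 1536-well plates after an overnight stay at 37 °C. Five days later, with no medium change, nuclei were Hoechst-stained, imaged at 4× and counted with MetaXpress. Viability is treated-well nuclei relative to vehicle-well nuclei, as a median across plates. Passing plates had control CV below 25% and at least one doubling.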
# Zebularine = compound: O=c1ncccn1[C@@H]1O[C@H](CO)[C@@H](O)[C@H]1O [Zebularine]
# In short: as §1
# BI-D1870 + OSI-027 = compound: CC(C)CCN1c2nc(Nc3cc(F)c(O)c(F)c3)ncc2N(C)C(=O)C1C [BI-D1870] + COc1cccc2cc(-c3nc([C@H]4CC[C@H](C(=O)O)CC4)n4ncnc(N)c34)[nH]c12 [OSI-027] (partner 0.5 µM)
# In short: (§2)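 Relative viability equals treated-well nuclei counts divided by vehicle-well nuclei counts. Counts came from 4× images of lung cancer cell lines grown in 1536-well plates for 5 days after pin-tool dosing on the day after seeding. Dosing used one drug alone or a fixed anchor-drug dose plus five library-drug doses (not always all listed) in √10 steps, and values are medians of duplicate plates.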
# Zebularine + Pemetrexed = compound: O=c1ncccn1[C@@H]1O[C@H](CO)[C@@H](O)[C@H]1O [Zebularine] + Nc1nc2[nH]cc(CCc3ccc(C(=O)N[C@@H](CCC(=O)O)C(=O)O)cc3)c2c(=O)[nH]1 [Pemetrexed] (partner 0.2 µM)
# In short: as §2
Cell Line,relative viability (BI-D1870; 0.04 µM),relative viability (BI-D1870; 0.1265 µM),relative viability (BI-D1870; 0.4 µM),relative viability (BI-D1870; 1.265 µM),relative viability (BI-D1870; 4 µM),relative viability (Zebularine; 1 µM),relative viability (Zebularine; 3.162 µM),relative viability (Zebularine; 10 µM),relative viability (Zebularine; 31.62 µM),relative viability (Zebularine; 100 µM),relative viability (BI-D1870 + OSI-027; first compound 0.04 µM),relative viability (BI-D1870 + OSI-027; first compound 0.1265 µM),relative viability (BI-D1870 + OSI-027; first compound 0.4 µM),relative viability (BI-D1870 + OSI-027; first compound 1.265 µM),relative viability (BI-D1870 + OSI-027; first compound 4 µM),relative viability (Zebularine + Pemetrexed; first compound 1 µM),relative viability (Zebularine + Pemetrexed; first compound 3.162 µM),relative viability (Zebularine + Pemetrexed; first compound 10 µM),relative viability (Zebularine + Pemetrexed; first compound 31.62 µM),relative viability (Zebularine + Pemetrexed; first compound 100 µM)
NCI-H322M,0.964,0.907,0.82,0.728,0.748,0.98,0.928,0.784,0.888,0.673,0.579,0.511,0.38,0.444,0.494,0.595,0.565,0.501,0.635,0.59
NCI-H358,1.07,0.834,0.803,0.916,0.775,0.884,0.951,0.596,0.491,0.346,0.825,0.65,0.687,0.728,0.344,0.159,0.187,0.161,0.162,0.179
NCI-H441,1.08,0.922,0.888,1.1,1.17,1.26,0.852,0.502,0.309,0.272,0.577,0.557,0.601,0.637,0.496,0.274,0.248,0.302,0.185,0.166
NCI-H460,1.04,0.96,0.96,0.999,0.703,1.07,1,0.662,0.498,0.096,0.825,0.504,0.43,0.442,0.185,0.0616,0.0545,0.08,0.076,0.0682
NCI-H520,0.963,0.79,1.11,0.927,0.851,1.11,0.957,0.52,0.388,0.26,0.226,0.205,0.252,0.291,0.2,0.687,0.588,0.374,0.239,0.215
NCI-H522,0.974,1.15,1.04,1.08,0.841,0.9,1.08,0.87,0.928,0.847,0.872,0.66,0.655,0.654,0.649,0.888,1.1,0.967,1.03,0.95
NCI-H596,0.986,0.912,0.939,1.08,1.03,1.12,0.954,0.781,1.06,0.989,0.797,0.704,0.95,0.572,0.5,0.478,0.513,0.428,0.42,0.494
NCI-H647,1.07,0.918,1.05,1.04,0.889,1.01,0.943,0.294,0.203,0.157,0.657,0.519,0.664,0.855,0.53,0.18,0.183,0.149,0.115,0.115
NCI-H650,1.02,0.789,1.08,0.906,0.836,0.956,0.886,0.611,0.496,0.254,0.538,0.427,0.509,0.471,0.446,0.918,1.03,0.757,0.454,0.286
NCI-H661,1.03,0.974,1,1,0.955,1.02,0.958,0.961,1.06,1.04,0.765,0.622,0.652,0.706,0.467,0.939,0.951,0.832,0.995,0.891
NCI-H838,0.962,0.892,0.958,1.07,0.992,1.05,0.962,0.753,0.692,0.352,0.378,0.352,0.349,0.47,0.462,0.259,0.267,0.234,0.221,0.17
NCI-H1355,1.06,0.917,0.958,1.11,0.861,1.06,0.955,0.749,0.62,0.33,0.464,0.36,0.361,0.425,0.308,1.04,1.02,0.802,0.623,0.303
NCI-H1395,0.905,0.822,0.87,0.988,0.827,0.929,0.86,0.788,0.676,0.511,0.717,0.639,0.658,0.616,0.593,1.05,0.787,0.661,0.749,0.489
NCI-H1437,1.02,0.906,0.992,1.04,0.9,1.07,1,0.761,0.97,0.641,0.924,0.788,0.807,0.941,0.786,0.322,0.335,0.276,0.295,0.275
NCI-H1563,0.991,1.01,0.933,0.972,0.994,0.966,0.969,0.951,1.04,0.998,0.79,0.814,0.673,0.801,0.709,0.896,0.717,0.689,0.728,0.791
NCI-H1648,0.877,0.777,0.729,0.89,0.869,1.16,1.06,0.563,0.668,0.708,0.266,0.255,0.273,0.252,0.277,0.652,0.613,0.518,0.804,0.683

Cell Line,relative viability (BI-D1870; 0.04 µM),relative viability (BI-D1870; 0.1265 µM),relative viability (BI-D1870; 0.4 µM),relative viability (BI-D1870; 1.265 µM),relative viability (BI-D1870; 4 µM),relative viability (Zebularine; 1 µM),relative viability (Zebularine; 3.162 µM),relative viability (Zebularine; 10 µM),relative viability (Zebularine; 31.62 µM),relative viability (Zebularine; 100 µM),relative viability (BI-D1870 + OSI-027; first compound 0.04 µM),relative viability (BI-D1870 + OSI-027; first compound 0.1265 µM),relative viability (BI-D1870 + OSI-027; first compound 0.4 µM),relative viability (BI-D1870 + OSI-027; first compound 1.265 µM),relative viability (BI-D1870 + OSI-027; first compound 4 µM),relative viability (Zebularine + Pemetrexed; first compound 1 µM),relative viability (Zebularine + Pemetrexed; first compound 3.162 µM),relative viability (Zebularine + Pemetrexed; first compound 10 µM),relative viability (Zebularine + Pemetrexed; first compound 31.62 µM),relative viability (Zebularine + Pemetrexed; first compound 100 µM)
NCI-H1650,0.9,0.765,1,0.96,0.807,1.03,0.904,0.766,1.15,0.727,0.653,0.591,0.593,0.68,0.331,0.381,0.35,0.387,0.523,0.33
NCI-H1651,0.997,0.911,0.945,1.04,0.914,1.04,0.989,0.718,0.911,0.57,0.738,0.608,0.668,0.753,0.63,0.631,0.556,0.542,0.563,0.347
NCI-H1666,1.12,1.01,0.955,1.16,0.99,1.03,0.904,0.834,1.02,0.868,0.943,0.808,0.849,0.89,0.807,0.878,0.788,0.753,0.824,0.791
NCI-H1734,1.02,0.922,0.978,0.987,0.815,1.02,0.97,0.771,0.579,0.289,0.569,0.541,0.567,0.629,0.472,0.39,0.459,0.395,0.36,0.232
NCI-H1755,1.03,1.01,1.03,1.07,1.01,1.12,0.981,1.02,1.04,0.717,0.705,0.714,0.651,0.847,0.683,0.365,0.37,0.438,0.638,0.397
NCI-H1792,1,0.981,0.828,1.15,0.613,1.1,0.925,0.431,0.449,0.277,0.753,0.613,0.533,0.552,0.397,1.04,0.71,0.24,0.307,0.271
NCI-H1793,1.06,0.803,0.757,1.19,0.801,1.16,1,0.442,0.67,0.237,0.293,0.216,0.22,0.266,0.224,1.08,0.92,0.292,0.347,0.287
NCI-H1915,1.09,0.921,0.969,0.988,0.763,1.04,0.932,0.821,1.08,1.03,0.665,0.516,0.591,0.476,0.411,0.54,0.46,0.449,0.553,0.513
NCI-H1944,1.12,0.919,0.907,1.03,0.941,0.995,1.02,0.788,0.947,0.718,0.514,0.376,0.366,0.475,0.426,0.696,0.604,0.614,0.573,0.357
NCI-H1975,1.15,0.904,0.99,0.914,0.851,1,0.859,0.519,0.468,0.258,0.755,0.58,0.54,0.559,0.457,0.323,0.283,0.235,0.206,0.2
NCI-H1993,1.03,0.876,0.827,1.15,0.702,1.18,0.945,0.736,0.963,0.774,0.481,0.511,0.53,0.537,0.54,0.612,0.65,0.518,0.58,0.585
NCI-H2009,1.11,0.967,1.02,0.858,0.513,1.05,0.987,0.793,0.704,0.358,0.742,0.571,0.615,0.559,0.255,1.12,0.962,0.767,0.675,0.211
NCI-H2023,1,0.846,0.88,0.988,0.701,1.17,1,0.724,0.613,0.287,0.456,0.298,0.323,0.319,0.223,0.232,0.2,0.138,0.18,0.149
NCI-H2085,1.06,0.95,1.01,0.984,0.746,1,0.949,0.829,0.972,0.662,0.745,0.6,0.674,0.602,0.337,0.913,0.881,0.753,0.877,0.495
NCI-H2087,1.13,0.977,1.15,1.21,0.78,1.04,0.949,0.747,0.894,0.381,0.733,0.516,0.58,0.638,0.392,0.722,0.667,0.511,0.548,0.216
